Results as given in BindingDB's records for patent US11306098 (Venenum Biodesign, 2022).

Key:
[1] = biological target: T1, Three-prime repair exonuclease 1 (Mus musculus, UniProt Q91XB0)
T1 sequence (Q91XB0 whole entry): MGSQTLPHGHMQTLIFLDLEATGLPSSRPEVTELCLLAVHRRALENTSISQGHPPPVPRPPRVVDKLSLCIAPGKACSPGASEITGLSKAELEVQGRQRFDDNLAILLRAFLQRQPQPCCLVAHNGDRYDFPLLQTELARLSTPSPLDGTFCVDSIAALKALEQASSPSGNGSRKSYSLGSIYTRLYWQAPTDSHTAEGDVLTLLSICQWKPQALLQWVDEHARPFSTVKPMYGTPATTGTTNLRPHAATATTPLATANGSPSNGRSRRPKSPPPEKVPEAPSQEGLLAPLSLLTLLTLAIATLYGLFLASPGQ

[2] = biological target: T2, Three-prime repair exonuclease 1 (Homo sapiens, UniProt Q9NSU2); experiment: Exonuclease Assay
T2 sequence (Q9NSU2 whole entry): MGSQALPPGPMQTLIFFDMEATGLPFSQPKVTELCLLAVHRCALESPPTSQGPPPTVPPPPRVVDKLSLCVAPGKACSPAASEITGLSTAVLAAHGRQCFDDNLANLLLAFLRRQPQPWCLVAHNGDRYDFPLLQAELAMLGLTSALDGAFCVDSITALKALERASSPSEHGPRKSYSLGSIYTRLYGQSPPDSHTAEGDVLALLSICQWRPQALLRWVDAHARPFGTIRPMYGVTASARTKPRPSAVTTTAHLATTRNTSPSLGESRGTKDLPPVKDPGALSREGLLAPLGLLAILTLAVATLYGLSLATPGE
Procedure: To evaluate the effect of compounds on TREX1 activity, test compounds were serially diluted (11-point, 3-fold) from 10 mM stock solutions and delivered to 384-well low-volume assay plates in 80 nL DMSO using an acoustic dispenser. Next, 4 μL of human TREX1 (0.5 nM), or murine TREX1 (1 nM), diluted in assay buffer (20 mM Tris pH 7.5, 5 mM MgCl2, 100 μg/mL BSA, 0.002% Triton X-100, 2 mM DTT), was added to the assay plate. After incubating for 30 minutes, 4 μL of labeled DNA oligonucleotide (500 nM) in assay buffer was added to initiate TREX1 exonuclease activity. The reaction was allowed to proceed for 45 minutes at room temperature prior to the addition of 4 μL of 150 mM EDTA to halt TREX1 activity. Assay plates were equilibrated for an additional 30 minutes and read on an EnVision Plate Reader (Perkin Elmer) to measure fluorescence emission at 535 nm following excitation at 485 nm. Fluorescence was plotted as a function of log molar compound concentration and fit to four-parameter dose-response equation to determine compound IC50.

Row | SMILES | IC50 [1] | IC50 [2]
1 | CC(C)C[C@H](C(=O)NCc1ccc(Cl)c(Cl)c1)N1CCC(CCc2ccccc2)N2C[C@H](N)C[C@H]2C1=O (some centres undefined) [US11306098, Example 1] | < 1000 nM | < 1000 nM
2 | N[C@@H]1C[C@H]2C(=O)N([C@H](CO)C(=O)NCc3ccc(Cl)c(Cl)c3)CCC(CCc3ccccc3)N2C1 (some centres undefined) [US11306098, Example 3] | < 1000 nM | < 1000 nM
